Assay results published in patent publication US9827184B2, “Peelable transparent diamond nail-care coat” (LES FINS NETWORK TECHNOLOGY CO.,LTD., priority 2015, dated 2017).

Experiments:
Assay in all cases: MTT microplate growth inhibition (MIC50) in MH culture medium
Type in all cases: cell-based
Settings in all cases: 96-well plate, 37° C., 24 h, OD 570 nm, unit not given, test concentrations given in μg·ML^−1
trichophyton rubrum = test system: trichophyton rubrum
Protocol: (§1) Bacteria (trichophylon rubrum, trichophyton mentagrophytes and epidermophyton fioccosum) are suspended in an MH culture medium with a dispersion concentration of about 10^5 cfu·ML^−1, and bacterium solution is added onto a 96-well plate (100 μL of the bacterium solution is added in each well); and the culture medium is taken as blank control, DMSO is taken as negative control for replacing a test substance, and itraconazole (Xian-Janssen Pharmaceutical Co., Ltd.) is taken as positive control. […] The 96-well plate is placed in an incubator at 37° C. and cultured for 24 h, then 25 μL of PBS containing 4 mg of MTT per mL is added in each well and cultured for 4 h under the same condition, and 100 μL of SDS lysate (95 mL of tri-distilled water+10 g of SDS+5 mL of isopropanol+0.1 mL of concentrated hydrochloric acid) is added in each well and then cultured for 12 h. An OD value is measured by a microplate reader at 570 nm, and an inhibition percent is calculated as follows: [formula]

epidermophyton floccosum = test system: epidermophyton floccosum
Protocol: as §1

[1] = test system: trichophyton mentagrophytes
Protocol: as §1

SMILES	50% minimum inhibitory concentration (MIC50) for trichophyton rubrum (trichophyton rubrum)	50% minimum inhibitory concentration (MIC50) for epidermophyton floccosum (epidermophyton floccosum)	50% minimum inhibitory concentration (MIC50) for trichophyton mentagrophytes [1]
COc1ccc(-c2cc(=O)c3cc(O)c(OC)c4c3n2OC2OC(C)=C(O)C=C2C4)cc1 (stereo not drawn) [compound of formula I]	0.63	0.82	0.60
CCC(C)n1ncn(-c2ccc(N3CCN(c4ccc(OCC5COC(Cn6cncn6)(c6ccc(Cl)cc6Cl)O5)cc4)CC3)cc2)c1=O (stereo not drawn) [itraconazole]	0.63	0.65	0.70
